Experimental data reported in patent US7524936B2, “Mitogenic oxygenase regulators” (Emory University, priority 2000, dated 2009).

Tests used:
[1] = tested on: lysates of NIH 3T3 cells stably transfected with the human Nox 4 gene or human Nox 5 gene; assay: NADPH-dependent superoxide generation, lucigenin luminescence assay in cell lysates; format: biochemical; conditions: 30 μg cell lysate, 200 μM NADPH, 500 μM lucigenin
Protocol: In one embodiment of the present invention, NIH 3T3 cells stably transfected with the human Nox 4 gene (SEQ ID NO:1) or human Nox 5 gene (SEQ ID NO:3) are analyzed for superoxide generation using the lucigenin (Bis-N-methylacridinium luminescence assay (Sigma, St. Louis, Mo., Li et al. (1998) J. Biol. Chem. 273, 2015-2023). Cells are washed with cold HANKS' solution and homogenized on ice in HANKS' buffer containing 15% sucrose using a Dounce homogenizer. Cell lysates are frozen immediately in a dry ice/ethanol bath. For the assay, 30 μg of cell lysate is mixed with 200 μM NADPH and 500 μM lucigenin. Luminescence is monitored using a LumiCounter (Packard) at three successive one minute intervals and the highest value was used for comparison. Protein concentration is determined by the Bradford method.
Superoxide generation is monitored in lysates from some of the stably transfected cell lines and is compared with superoxide generation by the untransfected NIH 3T3 cell lysates.

[2] = tested on: Nox 4 enzyme and Nox 5 enzyme; assay: cell-free assay for Nox 4 / Nox 5 NADPH-oxidase activity (NADPH-dependent chemiluminescence); format: biochemical, human; conditions: MgCl2 1-5 mM; cell lysate, 200 μM NADPH, 10 μM lucigenin, 37° C.
Protocol: In an alternate and preferred embodiment of the present invention, cells that are stably transfected with Nox 4 (YA28), Nox 5 (YA28) or with empty vector (NEF2) are grown in 10 cm tissue culture plates in medium containing DMEM, 10% calf serum, 100 units/ml penicillin, 100 μg/ml streptomycin, and 1 μg/ml puromycin to approximately 80% confluency. Cells (five tissue culture plates of each cell type) are washed briefly with 5 ml phosphate buffered saline (PBS) then dissociated from the plates with PBS containing 5 mM EDTA. Cells are pelleted by centrifuging briefly at 1000×g.
To permeabilize the cells, freeze thaw lysis is carried out and this is followed by passage of the cell material through a small bore needle. The supernatant is removed and the cells are frozen on dry ice for 15 minutes. […]
The cell lysates are assayed for protein concentration using the BioRad protein assay system. […] The reaction is initiated by adding 1.5 mM NADPH and 75 μM lucigenin to the assay mix to give a final concentration of 200 μM NADPH and 10 μM lucigenin, and the chemiluminescence is monitored immediately. […] The plate is monitored continuously for 60 minutes and the maximal relative luminescence unit (RLU) value for each sample is used for the graph. […]

Molecule	luminescent signal (superoxide generation) [1]	enhancement of NADPH-oxidase activity [2]
superoxide dismutase [reference compound]	inhibited	–
c1ccc2c(c1)[I+]c1ccccc1-2 [diphenylene iodonium, reference compound]	inhibited	–
[Cl-].[Cl-].[Mg+2] [MgCl2]	–	about 2 fold
p47phox: recombinant human cytosolic factor of the phagocyte respiratory-burst oxidase (protein, UniProt P14598 1-390, looked up) Neutrophil cytosol factor 1: MGDTFIRHIALLGFEKRFVPSQHYVYMFLVKWQDLSEKVVYRRFTEIYEFHKTLKEMFPIEAGAINPENRIIPHLPAPKWFDGQRAAENRQGTLTEYCSTLMSLPTKISRCPHLLDFFKVRPDDLKLPTDNQTKKPETYLMPKDGKSTATDITGPIILQTYRAIANYEKTSGSEMALSTGDVVEVVEKSESGWWFCQMKAKRGWIPASFLEPLDSPDETEDPEPNYAGEPYVAIKAYTAVEGDEVSLLEGEAVEVIHKLLDGWWVIRKDDVTGYFPSMYLQKSGQDVSQAQRQIKRGAPPRRSSIRNAHSIHQRSRKRLSQDAYRRNSVRFLQQRRRQARPGPQSPGSPLEEERQTQRSKPQPAVPPRPSADLILNRCSESTKRKLASAV	unaffected	–
p67phox: recombinant human cytosolic factor of the phagocyte respiratory-burst oxidase (protein, UniProt P19878 1-526, looked up) Neutrophil cytosol factor 2: MSLVEAISLWNEGVLAADKKDWKGALDAFSAVQDPHSRICFNIGCMYTILKNMTEAEKAFTRSINRDKHLAVAYFQRGMLYYQTEKYDLAIKDLKEALIQLRGNQLIDYKILGLQFKLFACEVLYNIAFMYAKKEEWKKAEEQLALATSMKSEPRHSKIDKAMECVWKQKLYEPVVIPVGKLFRPNERQVAQLAKKDYLGKATVVASVVDQDSFSGFAPLQPQAAEPPPRPKTPEIFRALEGEAHRVLFGFVPETKEELQVMPGNIVFVLKKGNDNWATVMFNGQKGLVPCNYLEPVELRIHPQQQPQEESSPQSDIPAPPSSKAPGRPQLSPGQKQKEEPKEVKLSVPMPYTLKVHYKYTVVMKTQPGLPYSQVRDMVSKKLELRLEHTKLSYRPRDSNELVPLSEDSMKDAWGQVKNYCLTLWCENTVGDQGFPDEPKESEKADANNQTTEPQLKKGSQVEALFSYEATQPEDLEFQEGDIILVLSKVNEEWLEGECKGKVGIFPKVFVEDCATTDLESTRREV	unaffected	–
